Measurements taken from PMC8197855, “Peptide/β-Peptoid Hybrids with Activity against Vancomycin-Resistant Enterococci: Influence of Hydrophobicity and Structural Features on Antibacterial and Hemolytic Properties” (International Journal of Molecular Sciences, 2021).
Converted amounts (≈) assume the structure as drawn.

Experiments:
E. faecium ATCC 19434 [1] = assay: microbe, parasite or virus in culture; format: cell-based, Enterococcus faecium; conditions: ATCC 19434, 24 h
E. faecalis ATCC 29212 = assay: microbe, parasite or virus in culture; format: cell-based, Enterococcus faecalis; conditions: ATCC 29212, 24 h
[2] = Hydrophobicity by analytical RP-HPLC (% MeCN at peak elution); format: physicochemical
Procedure: Water was filtered by using an Evoqua LaboStar PRO TWF Ultra Pure Water System prior to use in high-performance liquid chromatography (HPLC). The retention time for each peptidomimetic was determined by analytical HPLC using a Phenomenex Luna C18(2) HST column (100 mm × 3 mm; particle size: 2.5 μm; pore size: 100 Å) on a Shimadzu Prominence and Shimadzu Nexera system using an aqueous MeCN gradient with 0.1% trifluoroacetic acid (TFA) added (eluent A: 5:95 MeCN–H2O + 0.1% TFA; eluent B: 95:5 MeCN–H2O + 0.1% TFA); a flow rate of 0.5 mL/min was used. For the elution of peptidomimetics, a linear gradient of 0% to 60% B over 10 min was used with UV detection at λ = 220 nm. The percentage MeCN at peak elution was calculated from the retention time (tR) by using the following formula:%MeCN = [0.95 × 0.6 × tR/10 + 0.05 × (1 − 0.6 × tR/10)] × 100%

E. faecium (MV388) [3] = format: cell-based, Enterococcus faecium; conditions: MV388, 24 h
Procedure: (§1) The minimum bactericidal concentration (MBC) is defined as the lowest concentration of the peptidomimetics that kills 99.9% of the bacterial population. All experiments were performed in three biological replicates.

E. faecalis (MV269) = format: cell-based, Enterococcus faecalis; conditions: MV269, 24 h
Procedure: as §1

E. faecium ATCC 19434 [4] = assay: Time-kill kinetics; format: cell-based, Enterococcus faecium; conditions: for Reduction in viable bacteria (time-kill): up to 5 h exposure, BHI broth
Procedure: Time–kill kinetics were established for compounds 2, 5 and 10 in E. faecium ATCC 19434 and E. faecalis ATCC 29212. Prior to the experiments, the isolates were incubated on BHI agar supplemented with 5% calf blood at 37 °C overnight (ON). For each of the strains 1-2 colonies were transferred into 4 mL BHI broth and incubated ON at 37 °C with shaking (180 rpm). OD600 was measured, and then cultures were diluted with BHI broth to an OD600 of 0.05 and grown for approximately 2 h to reach the exponential phase.
One untreated control per strain was prepared. The inoculum was quantified by plating and subsequently enumerated. The initial inocula were approximately 10^7 CFU/mL. Two controls were included, both without bacteria and one including the respective compound without bacteria. All tubes were incubated at 37 °C with shaking (180 rpm). Samples of 100 µL were taken after 1 h, 3 h and 5 h of exposure. Appropriate dilutions were spread onto BHI agar plates and incubated at 37 °C overnight, and then colonies were enumerated. Plates were incubated for 24 h and 48 h, and then checked for the appearance of slow-growing colonies. The experiments were performed with at least three biological replicates for each condition and time point.

E. faecium (MV388) [5] = assay: Membrane integrity, propidium iodide uptake by flow cytometry; format: cell-based, Enterococcus faecium; conditions: peptidomimetics at MBC, nisin at MIC; 5 min
Procedure: Membrane integrity was assessed by using a propidium iodide (PI) uptake assay, as previously described. In brief, 2 μL of stationary enterococcal cultures were transferred to Falcon round-bottom tubes (14 mL; Corning), each containing 2 mL fresh BHI medium. Cultures were grown to an OD600 of 0.2 at 37 °C with shaking (180 rpm). […] Then, 15 μL of culture was transferred into 980 μL filtered phosphate-buffered saline, and then stained for 5 min with 5 μL of 0.1 mg/mL PI. After staining, the red fluorescence levels (FL3 channel) in cells were recorded by using a BD Biosciences Accuri C6 flow cytometer (Becton Dickinson). The settings of the flow cytometer were as follows: 25,000 recorded events at an FSC threshold of 15,000, and medium flow rate. The gating of the stained cell population and analysis of flow cytometry data were performed in CFlow (BD Accuri). The assessment of membrane integrity was performed in three biological replicates for each condition.

human red blood cells = assay: Hemolytic activity; format: cell-based; conditions: 60 min, 37 °C, 1% red blood cell suspension
Procedure, shortened: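 Washed cells (1% suspension) incubated with compound at final 400 μg/mL, 60 min at 37 °C with mild agitation, triplicate wells. Released hemoglobin read at OD405 in supernatant; percent hemolysis normalised to 1% SDS (100%) and PBS (0%).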

E. faecalis isolates = format: cell-based, Enterococcus faecalis; conditions: 24 h
Procedure: Overnight cultures of the enterococcal isolates were diluted in physiological saline (0.9% NaCl) to reach a turbidity of 0.5 McFarland units (Sensititre® nephelometer and the Sensititre® McFarland Standard). Bacterial suspensions were adjusted to 5 × 10^5 CFU/mL in MHB II or BHI broth containing two-fold dilutions of peptidomimetics or conventional antibiotics in a final volume of 100 µL. The plates were incubated for 24 h at 37 °C without shaking. […] All experiments were performed in three biological replicates.

Row | SMILES | Minimum inhibitory concentration (E. faecium ATCC 19434 [1]) [µg/mL] | Minimum inhibitory concentration (E. faecalis ATCC 29212) [µg/mL] | Hydrophobicity, Luna C18(2) HST (0–60% B; 10 min), retention converted into % MeCN [2] [% MeCN] | Minimum bactericidal concentration (E. faecium (MV388) [3]) [µg/mL] | Minimum bactericidal concentration (E. faecalis (MV269)) [µg/mL] | Bactericidal or bacteriostatic mode of action (E. faecium ATCC 19434 [4]; 8 µg/mL (4× MIC)) | Reduction in viable bacteria (time-kill) (E. faecium ATCC 19434 [4]; 4× MIC) | Propidium iodide (PI) uptake, membrane integrity (E. faecium (MV388) [5]) | Hemolysis (at 400 µg/mL) (human red blood cells) [%] | MIC (range) against E. faecalis (E. faecalis isolates) [µg/mL] | Reduction in viable cell counts within 1 h (E. faecium ATCC 19434 [4]; 4× MIC, within 1 h of exposure)
1 | CC(=O)N[C@@H](CCCCNC(=N)N)C(=O)N(CCC(=O)N[C@@H](CCCCNC(=N)N)C(=O)N(CCC(=O)N[C@@H](CCCCNC(=N)N)C(=O)N(CCC(=O)N[C@@H](CCCCNC(=N)N)C(=O)N(CCC(=O)N[C@@H](CCCCNC(=N)N)C(=O)N(CCC(=O)N[C@@H](CCCCNC(=N)N)C(=O)N(CCC(N)=O)[C@@H](C)C1CCCCC1)[C@@H](C)C1CCCCC1)[C@@H](C)C1CCCCC1)[C@@H](C)C1CCCCC1)[C@@H](C)C1CCCCC1)[C@@H](C)C1CCCCC1 [Compound 2, Ac-[hArg-βNsce]6-NH2] | 2 (≈ 0.922 µM) | 2 to 4 | 51.6 | 4 to 8 | 8 (≈ 3.69 µM) | bactericidal | approximately 3 log | significant accumulation of PI | – | – | –
2 | CC(=O)N[C@@H](CCCCNC(=N)N)C(=O)N(CCC(=O)N[C@@H](CCCCN)C(=O)N(CCC(=O)N[C@@H](CCCCNC(=N)N)C(=O)N(CCC(=O)N[C@@H](CCCCN)C(=O)N(CCC(=O)N[C@@H](CCCCNC(=N)N)C(=O)N(CCC(=O)N[C@@H](CCCCN)C(=O)N(CCC(N)=O)[C@@H](C)c1ccccc1)[C@@H](C)C1CCCCC1)[C@@H](C)c1ccccc1)[C@@H](C)C1CCCCC1)[C@@H](C)c1ccccc1)[C@@H](C)C1CCCCC1 [Compound 5, Ac-[hArg-βNsce-Lys-βNspe]3-NH2] | 4 (≈ 1.98 µM) | 4 to 8 | 46.6 | 128 (≈ 63.2 µM) | 16 (≈ 7.91 µM) | – | 1.5 log | less perturbation of membrane integrity | 9.4 | 4 to 16 | no reduction in viable cell counts
3 | CCCCCCCC(=O)N[C@@H](CCCCN)C(=O)N(CCC(=O)N[C@@H](CCCCN)C(=O)N(CCC(=O)N[C@@H](CCCCN)C(=O)N(CCC(=O)N[C@@H](CCCCN)C(=O)N(CCC(=O)N[C@@H](CCCCN)C(=O)N(CCC(=O)N[C@@H](CCCCN)C(=O)N(CCC(N)=O)[C@@H](C)c1ccccc1)[C@@H](C)c1ccccc1)[C@@H](C)c1ccccc1)[C@@H](C)c1ccccc1)[C@@H](C)c1ccccc1)[C@@H](C)c1ccccc1 [Compound 10, Oct-[Lys-βNspe]6-NH2] | 8 (≈ 4.07 µM) | 8 to 16 | 47.2 | 16 (≈ 8.15 µM) | 32 (≈ 16.3 µM) | – | 4 log | less perturbation of membrane integrity | 6.9 | 4 to 16 | –
